± gives the standard deviation of the averaged measurements.
Legend:
Settings in all cases: 72 h
Calu-3 [1] = test: drug sensitivity score (DSS) for viability; higher = more toxic; extreme values may be limits of the assay
Caco-2 [2] = test: as above
HepG2 [3] = test: as above
Vero E6 [4] = test: as above
U2OS [5] = test: as above
Calu-3 [6] = test: relative viability EC50 (midpoint between 100% and the lowest measured viability); higher = less toxic
Caco-2 [7] = test: as above
HepG2 [8] = test: as above
Vero E6 [9] = test: as above
U2OS [10] = test: as above
Calu-3 [11] = test: cell viability relative to DMSO; higher = less toxic
Caco-2 [12] = test: as above
HepG2 [13] = test: as above
Vero E6 [14] = test: as above
U2OS [15] = test: as above

Compound	drug sensitivity score (Calu-3 [1])	drug sensitivity score (Caco-2 [2])	drug sensitivity score (HepG2 [3])	drug sensitivity score (Vero E6 [4])	drug sensitivity score (U2OS [5])	relative viability EC50 (Calu-3 [6]) [µM]	relative viability EC50 (Caco-2 [7]) [µM]	relative viability EC50 (HepG2 [8]) [µM]	relative viability EC50 (Vero E6 [9]) [µM]	relative viability EC50 (U2OS [10]) [µM]	cell viability (Calu-3 [11]; 1 nM) [%]	cell viability (Calu-3 [11]; 10 nM) [%]	cell viability (Calu-3 [11]; 100 nM) [%]	cell viability (Calu-3 [11]; 1000 nM) [%]	cell viability (Calu-3 [11]; 10000 nM) [%]	cell viability (Caco-2 [12]; 1 nM) [%]	cell viability (Caco-2 [12]; 10 nM) [%]	cell viability (Caco-2 [12]; 100 nM) [%]	cell viability (Caco-2 [12]; 1000 nM) [%]	cell viability (Caco-2 [12]; 10000 nM) [%]	cell viability (HepG2 [13]; 1 nM) [%]	cell viability (HepG2 [13]; 10 nM) [%]	cell viability (HepG2 [13]; 100 nM) [%]	cell viability (HepG2 [13]; 1000 nM) [%]	cell viability (HepG2 [13]; 10000 nM) [%]	cell viability (Vero E6 [14]; 1 nM) [%]	cell viability (Vero E6 [14]; 10 nM) [%]	cell viability (Vero E6 [14]; 100 nM) [%]	cell viability (Vero E6 [14]; 1000 nM) [%]	cell viability (Vero E6 [14]; 10000 nM) [%]	cell viability (U2OS [15]; 1 nM) [%]	cell viability (U2OS [15]; 10 nM) [%]	cell viability (U2OS [15]; 100 nM) [%]	cell viability (U2OS [15]; 1000 nM) [%]	cell viability (U2OS [15]; 10000 nM) [%]
Nc1nc(/C(=C/CC(=O)O)C(=O)N[C@@H]2C(=O)N3C(C(=O)O)=CCS[C@H]23)cs1 [ceftibuten]	0	0	0	0	0	> 10	> 10	> 10	> 10	> 10	103	99.9	102	94.6	106	102	102	106	94.9	104	86.3	105	99.3	95.3	91	99.5	104	96.1	104	97.8	101	95	100	97.8	106
C[C@H](CCC(=O)O)[C@H]1CC[C@H]2[C@@H]3CC[C@@H]4C[C@H](O)CC[C@]4(C)[C@H]3C[C@H](O)[C@]12C [deoxycholic-acid]	0	0	0	0	0	> 10	> 10	> 10	> 10	> 10	103	93.9	103	102	102	102	97.5	98.5	105	90	105	112	90.9	102	97.5	99.5	103	102	106	101	96.8	99.2	98.7	99.8	98.2
Nc1ccn(C[C@@H](CO)OCP(=O)(O)O)c(=O)n1 [cidofovir]	0	0	0	0	0	> 10	> 10	> 10	> 10	> 10	93.7	104	112	101	107	103	92.7	106	96.8	101	97	98.3	104	111	120	93.7	94.3	88.4	87.4	99.6	99.4	95.7	97.5	95.3	98.7
O=C(NCc1ccc(OC(F)(F)F)cc1)C1c2ccccc2C(=O)N1C1CCOCC1 (stereo not given) [NAV-26]	0	0	0	0	0	> 10	> 10	> 10	> 10	> 10	103	97.6	93.8	99.5	100	100	90.6	105	96.8	99.2	107	91.6	96.7	112	112	95.7	101	88.7	98.9	107	99.3	94.5	99	95.9	91
CN[C@@H]1[C@@H](O)[C@@H](O[C@@H]2[C@@H](O)[C@H](O[C@H]3OC(CN)=CC[C@H]3N)[C@@H](N)C[C@H]2N)OC[C@]1(C)O [Sisomicin (sulfate)]	0	0	0	0	0	> 10	> 10	> 10	> 10	> 10	105 ± 7.6	101.8 ± 0.35	97.1 ± 0.28	101 ± 4.5	105 ± 5.2	100 ± 6.2	100 ± 4.2	103 ± 2.8	100 ± 0.78	94.15 ± 0.49	108 ± 8.4	101 ± 4.7	107 ± 7.3	96.8 ± 1.3	98.1 ± 4.1	107 ± 8.3	107 ± 1.6	105 ± 4.5	98.5 ± 1.6	104 ± 2.9	101 ± 0.64	102 ± 0.49	99.7 ± 0.99	105 ± 3.1	99.4 ± 0.71
O=C(Nc1cccc(C(F)(F)F)c1)Nc1ccc(Br)cc1-c1nnn[nH]1 [NS-3623]	0	0	0	0	0	> 10	> 10	> 10	> 10	> 10	107	92.8	95.3	102	100	98	99.8	100	97.8	101	102	102	92.5	98.7	112	93.3	101	92.4	94.6	110	99.6	97.8	97.6	99.2	96.2
CC[C@H](C)C[C@H](C)CCCCCCCCC(=O)N[C@H]1C[C@@H](O)[C@@H](NCCN)NC(=O)[C@@H]2[C@@H](O)CCN2C(=O)[C@H]([C@H](O)CCN)NC(=O)[C@H]([C@H](O)[C@@H](O)c2ccc(O)cc2)NC(=O)[C@@H]2C[C@@H](O)CN2C(=O)[C@H]([C@@H](C)O)NC1=O [caspofungin]	0.1 ± 0.14	1.35 ± 1.9	0	0	0	> 10	> 10	> 10	> 10	> 10	104 ± 13	104 ± 14	104 ± 1.4	96.5 ± 5.9	89.5 ± 0.85	88.2 ± 4.6	96.5 ± 3	115 ± 24	90.2 ± 18	95 ± 1.3	91.8	106	110	116	103	98.1 ± 1.8	99 ± 3.3	98.85 ± 0.64	95.1 ± 1.6	101 ± 7.1	95.2 ± 2.2	95.6 ± 0.14	98 ± 1.3	98.2 ± 6.6	99 ± 1.6
CNNCc1ccc(C(=O)NC(C)C)cc1 [procarbazine]	0	0	0	0	0	> 10	> 10	> 10	> 10	> 10	92.2	99.3	97.4	102	90.8	98.2	105	96.2	101	87.4	103	87.7	93.3	112	110	103	93.2	102	89	102	96	103	96.4	98.7	106
N[C@@H]1CN(c2c(F)cc3c(=O)c(C(=O)O)cn([C@@H]4C[C@@H]4F)c3c2Cl)CC12CC2 [sitafloxacin]	0	0	0	0	0	> 10	> 10	> 10	> 10	> 10	98.5	94	98	96.7	93.9	95.2	95.6	91.6	106	97.2	107	101	97.5	110	108	91.3	98	91.6	99	106	104	96.3	96	95.8	96.8
C/C(O)=C(\C#N)C(=O)Nc1cc(Br)ccc1Br [LFM-A13]	0	0	0	0	0	> 10	> 10	> 10	> 10	> 10	92.8	99.6	103	100	94.7	99.6	99.5	90.1	100	92.1	105	99.7	99.5	99	101	112	80.5	99	96.3	105	102	103	97.3	104	96.4
O=C(Nc1cc(C(F)(F)F)ccc1O)Nc1cc(C(F)(F)F)ccc1O [NS-1643]	0	0.2	0	0	0	> 10	> 10	> 10	> 10	> 10	102	94.7	103	97.4	104	108	101	102	95	88.3	95.3	105	110	94.7	92.5	98.8	103	100	99.1	95.1	99.3	100	104	102	96.9
